# Patent US6951639B2, “1,4,7,10-tetraazacyclododecane butyltriols, processes for their production and pharmaceutical agents containing them” (Schering AG, priority 1990, dated 2005)
# Experiments:
# rats = assay: Intracisternal administration (ED50), neural compatibility; type: in vivo, rats (Wistar-Han-Schering, SPF); settings: once intracisternally, 0.08 ml/animal, posture anomalies, spasms and death as criteria
# Method: 2. Intracisternal Administration (ED50)
# The test substance was administered under light ether anesthesia to an equal number of female and male rats (130-170 g, Wistar-Han-Schering, SPF) once intracisternally by suboccipital puncture in constant volumes (0.08 ml/animal) in different concentrations (3 doses per 10 animals per substance). A volume sampling check (Ringer's solution) followed the study. Posture anomalies, spasms and death of the animals were evaluated as action criteria.
# (§1) The statistical evaluation of all study results took place with the probit analysis.
# mice = assay: Acute toxicity determination (LD50), intravenous administration in a caudal vein; type: in vivo; settings: mice 18-22 g, 2 ml/min, 7 days observation, death as criterion
# Method: 1. Acute Toxicity Determination (LD50)
# In an individual cage (Rhema/Hofheim company) the contrast medium was administered to mice (weight: 18-22 g) approximately at body temperature in a caudal vein at a rate of 2 ml/min. […]
# The contrast media were administered to 3 mice each in 3 doses at variable volumes and constant concentration. The allocation of the animals to the individual doses and the injection sequence of the doses took place by chance.
# The observation period of the animals extended over 7 days per injection. The death of the animals was used as the criterion of the effectiveness.
# as §1
# [1] = tested on: cerebral infarction in the rat; assay: NMR-diagnostic in vivo examination: demonstration of a cerebral infarction in the rat; parameters: species or system Wistar rat; settings: image 1 minute after administration
# Method: The experimental animal was a female Wistar rat weighing 200 g. For the induction of the cerebral infarction, the animal was first anesthetized. After intravenous injection of Bengal red with a dose of 20 mg/kg, an area of the brain about 0.7 cm in diameter near the bregma point was irradiated through the cranium with light of wavelength 548 nm (this corresponds to the maximum absorption of Bengal red), by which, because of the formation of singlet oxygen by a chain of various reactions, there results the aggregation of platelets and thus an infarction in the irradiated region.
# The imaging took place in an MRI experimental device of the General Electric company (field strength, 2 teslas). It was performed with a spin echo sequence (TR=400 msec, Ts=20 msec). The layer thickness was 3 mm, and 4 averagings were performed respectively.
# An axial sectional plane image without contrast medium where the cranium points downward was taken. The infraction area is indicated only quite weakly by a lower signal intensity in comparison to the healthy tissue. […] The same animal was administered another dose after about 20 minutes, this time in the amount of 0.3 mmol of Gd/kg.
# [2] = reference value for monomer contrast media; cited from earlier work
SMILES,Neural ED50 (rats) [µmol/kg],Acute i.v. LD50 (mice) [mmol/kg],"signal enhancement in the area of infarction (MRI) ([1]; 0.1 mmol of Gd/kg, 2 teslas, spin echo)",signal enhancement in the area of infarction (MRI) ([1]; further dose of 0.3 mmol of Gd/kg after about 20 minutes),intravenous compatibility [2] [mmol/kg]
"O=C([O-])CN1CCN(CC(=O)[O-])CCN(CC(O)C(O)CO)CCN(CC(=O)[O-])CC1.[Gd+3] (stereo not shown) [Example 1, Gadolinium Complex of 10-(2,3,4-trihydroxybutyl)-1,4,7-triscarboxymethyl-1,4,7,10-tetraazacyclododecane]",27,35,–,–,–
"O=C([O-])CN1CCN(CC(=O)[O-])CCN(C(CO)C(O)CO)CCN(CC(=O)[O-])CC1.[Gd+3] (stereo not shown) [Example 2, Gadolinium Complex of 10-(1-hydroxymethyl-2,3-dihydroxypropyl)-1,4,7-triscarboxymethyl-1,4,7,10-tetraazacyclododecane]",29,30,clear enhancement,enhancement substantially stronger than after the smaller dose,–
OC[C@@H](O)[C@@H](O)[C@H](O)[C@H](O)CO [mannitol],–,–,–,–,30 to 40
